Assay results taken from patent US11571411B2, “Use of a bisamide derivative of malonic acid for treating allergic and other diseases in humans and animals” (PHARMENTERPRISES ALLERGY LLC, priority 2018, dated 2023).

System: histamine-induced nasal congestion model
Experiment: Histamine-induced nasal congestion model in dogs, oral administration
Format: in vivo, Beagle dogs
Description: A histamine-induced nasal congestion model in dogs was performed according to the standard procedure [Tiniakov R. L., Tiniakova O. P., McLeod R. L., Hey J. A., Yeates D. B. Canine model of nasal congestion and allergic rhinitis//J Appl Physiol. 2003. V.94(5). P.1821-1828]. Beagle dogs were injected in the nasal cavity with a 5% histamine solution in a volume of 250 μl/nostril. The volume of the nasal cavity of the right and left nostrils was measured using a rhinometer before and 5, 10, 15, 20, 30, 40, 50 and 60 minutes after administration of histamine. Three experiments were performed, in which Compound I was administered orally once at different times: 1) 30 minutes before administration of histamine; 2) 1 hour before administration of histamine; and 3) 6 hours before administration of histamine, and one experiment was performed, in which Compound I was administered orally once daily for 14 days, the last administration was carried out 1 hour before administration of histamine.

[1] = oral 1 hour before histamine, 0.005 mg/kg, 5 minutes after histamine
[2] = oral 1 hour before histamine, 0.005 mg/kg, 10 minutes after histamine
[3] = oral 1 hour before histamine, 0.005 mg/kg, 15 minutes after histamine
[4] = oral 1 hour before histamine, 0.005 mg/kg, 20 minutes after histamine
[5] = oral 1 hour before histamine, 0.005 mg/kg, 30 minutes after histamine
[6] = oral 1 hour before histamine, 0.005 mg/kg, 40 minutes after histamine
[7] = oral 1 hour before histamine, 0.005 mg/kg, 50 minutes after histamine
[8] = oral 1 hour before histamine, 0.005 mg/kg, 60 minutes after histamine
[9] = oral 1 hour before histamine, 0.005 mg/kg, before histamine administration
[10] = oral 1 hour before histamine, 0.05 mg/kg, 5 minutes after histamine
[11] = oral 1 hour before histamine, 0.05 mg/kg, 10 minutes after histamine
[12] = oral 1 hour before histamine, 0.05 mg/kg, 15 minutes after histamine
[13] = oral 1 hour before histamine, 0.05 mg/kg, 20 minutes after histamine
[14] = oral 1 hour before histamine, 0.05 mg/kg, 30 minutes after histamine
[15] = oral 1 hour before histamine, 0.05 mg/kg, 40 minutes after histamine
[16] = oral 1 hour before histamine, 0.05 mg/kg, 50 minutes after histamine
[17] = oral 1 hour before histamine, 0.05 mg/kg, 60 minutes after histamine
[18] = oral 1 hour before histamine, 0.05 mg/kg, before histamine administration
[19] = oral 1 hour before histamine, 0.54 mg/kg, 5 minutes after histamine
[20] = oral 1 hour before histamine, 0.54 mg/kg, 10 minutes after histamine
[21] = oral 1 hour before histamine, 0.54 mg/kg, 15 minutes after histamine
[22] = oral 1 hour before histamine, 0.54 mg/kg, 20 minutes after histamine
[23] = oral 1 hour before histamine, 0.54 mg/kg, 30 minutes after histamine
[24] = oral 1 hour before histamine, 0.54 mg/kg, 40 minutes after histamine
[25] = oral 1 hour before histamine, 0.54 mg/kg, 50 minutes after histamine
[26] = oral 1 hour before histamine, 0.54 mg/kg, 60 minutes after histamine
[27] = oral 1 hour before histamine, 0.54 mg/kg, before histamine administration
[28] = oral 6 hours before histamine, 0.005 mg/kg, 5 minutes after histamine
[29] = oral 6 hours before histamine, 0.005 mg/kg, 10 minutes after histamine
[30] = oral 6 hours before histamine, 0.005 mg/kg, 15 minutes after histamine
[31] = oral 6 hours before histamine, 0.005 mg/kg, 20 minutes after histamine
[32] = oral 6 hours before histamine, 0.005 mg/kg, 30 minutes after histamine
[33] = oral 6 hours before histamine, 0.005 mg/kg, 40 minutes after histamine
[34] = oral 6 hours before histamine, 0.005 mg/kg, 50 minutes after histamine
[35] = oral 6 hours before histamine, 0.005 mg/kg, 60 minutes after histamine
[36] = oral 6 hours before histamine, 0.005 mg/kg, before histamine administration
[37] = oral 6 hours before histamine, 0.05 mg/kg, 5 minutes after histamine
[38] = oral 6 hours before histamine, 0.05 mg/kg, 10 minutes after histamine
[39] = oral 6 hours before histamine, 0.05 mg/kg, 15 minutes after histamine
[40] = oral 6 hours before histamine, 0.05 mg/kg, 20 minutes after histamine
[41] = oral 6 hours before histamine, 0.05 mg/kg, 30 minutes after histamine
[42] = oral 6 hours before histamine, 0.05 mg/kg, 40 minutes after histamine
[43] = oral 6 hours before histamine, 0.05 mg/kg, 50 minutes after histamine
[44] = oral 6 hours before histamine, 0.05 mg/kg, 60 minutes after histamine
[45] = oral 6 hours before histamine, 0.05 mg/kg, before histamine administration
[46] = oral 6 hours before histamine, 0.54 mg/kg, 5 minutes after histamine
[47] = oral 6 hours before histamine, 0.54 mg/kg, 10 minutes after histamine
[48] = oral 6 hours before histamine, 0.54 mg/kg, 15 minutes after histamine
[49] = oral 6 hours before histamine, 0.54 mg/kg, 20 minutes after histamine
[50] = oral 6 hours before histamine, 0.54 mg/kg, 30 minutes after histamine

## O=C(CC(=O)NCCc1cnc[nH]1)NCCc1cnc[nH]1 [Compound I, N,N′-bis(2-(1H-imidazol-5-yl)ethyl)malonamide]
After a single oral administration, dogs
  onset of the therapeutic effect: ≤ 30 min
[1]
  Volume of the nasal cavity, left nostril: 3.1 ± 0.2$ cm^3
  Volume of the nasal cavity, right nostril: 3.1 ± 0.5$ cm^3
[2]
  Volume of the nasal cavity, left nostril: 2.4 ± 0.4$ cm^3
  Volume of the nasal cavity, right nostril: 2.1 ± 0.1$ cm^3
[3]
  Volume of the nasal cavity, left nostril: 2.2 ± 0.2$ cm^3
  Volume of the nasal cavity, right nostril: 2.8 ± 0.5$ cm^3
[4]
  Volume of the nasal cavity, left nostril: 2.3 ± 0.14$ cm^3
  Volume of the nasal cavity, right nostril: 2.6 ± 0.4$ cm^3
[5]
  Volume of the nasal cavity, left nostril: 2.0 ± 0.2$ cm^3
  Volume of the nasal cavity, right nostril: 3.0 ± 0.5$ cm^3
[6]
  Volume of the nasal cavity, left nostril: 3.6 ± 0.2 cm^3
  Volume of the nasal cavity, right nostril: 3.4 ± 0.2$ cm^3
[7]
  Volume of the nasal cavity, left nostril: 3.3 ± 0.2$ cm^3
  Volume of the nasal cavity, right nostril: 3.7 ± 0.24$ cm^3
[8]
  Volume of the nasal cavity, left nostril: 3.4 ± 0.1$ cm^3
  Volume of the nasal cavity, right nostril: 3.5 ± 0.2$ cm^3
[9]
  Volume of the nasal cavity, left nostril: 3.9 ± 0.2 cm^3
  Volume of the nasal cavity, right nostril: 4.3 ± 0.2 cm^3
[10]
  Volume of the nasal cavity, left nostril: 2.8 ± 0.1$ cm^3
  Volume of the nasal cavity, right nostril: 2.8 ± 0.3$ cm^3
[11]
  Volume of the nasal cavity, left nostril: 3.1 ± 0.24$ cm^3
  Volume of the nasal cavity, right nostril: 3.5 ± 0.24$ cm^3
[12]
  Volume of the nasal cavity, left nostril: 3.1 ± 0.14$ cm^3
  Volume of the nasal cavity, right nostril: 2.6 ± 0.2$ cm^3
[13]
  Volume of the nasal cavity, left nostril: 2.5 ± 0.14$ cm^3
  Volume of the nasal cavity, right nostril: 2.5 ± 0.14$ cm^3
[14]
  Volume of the nasal cavity, left nostril: 3.6 ± 0.24 cm^3
  Volume of the nasal cavity, right nostril: 3.5 ± 0.24 cm^3
[15]
  Volume of the nasal cavity, left nostril: 3.7 ± 0.34 cm^3
  Volume of the nasal cavity, right nostril: 3.7 ± 0.24 cm^3
[16]
  Volume of the nasal cavity, left nostril: 3.2 ± 0.1$ cm^3
  Volume of the nasal cavity, right nostril: 3.2 ± 0.1$ cm^3
[17]
  Volume of the nasal cavity, left nostril: 3.2 ± 0.1$ cm^3
  Volume of the nasal cavity, right nostril: 3.5 ± 0.1$ cm^3
[18]
  Volume of the nasal cavity, left nostril: 4.0 ± 0.3 cm^3
  Volume of the nasal cavity, right nostril: 4.2 ± 0.2 cm^3
[19]
  Volume of the nasal cavity, left nostril: 2.6 ± 0.1$ cm^3
  Volume of the nasal cavity, right nostril: 3.0 ± 0.4$ cm^3
[20]
  Volume of the nasal cavity, left nostril: 3.4 ± 0.14$ cm^3
  Volume of the nasal cavity, right nostril: 3.0 ± 0.24$ cm^3
[21]
  Volume of the nasal cavity, left nostril: 2.5 ± 0.2$ cm^3
  Volume of the nasal cavity, right nostril: 3.0 ± 0.24$ cm^3
[22]
  Volume of the nasal cavity, left nostril: 2.5 ± 0.24$ cm^3
  Volume of the nasal cavity, right nostril: 2.8 ± 0.34$ cm^3
[23]
  Volume of the nasal cavity, left nostril: 3.8 ± 0.24 cm^3
  Volume of the nasal cavity, right nostril: 3.6 ± 0.24$ cm^3
[24]
  Volume of the nasal cavity, left nostril: 3.6 ± 0.14$ cm^3
  Volume of the nasal cavity, right nostril: 3.6 ± 0.24$ cm^3
[25]
  Volume of the nasal cavity, left nostril: 3.3 ± 0.3$ cm^3
  Volume of the nasal cavity, right nostril: 3.4 ± 0.1$ cm^3
[26]
  Volume of the nasal cavity, left nostril: 3.3 ± 0.2$ cm^3
  Volume of the nasal cavity, right nostril: 3.2 ± 0.2$ cm^3
[27]
  Volume of the nasal cavity, left nostril: 4.1 ± 0.1 cm^3
  Volume of the nasal cavity, right nostril: 4.4 ± 0.1 cm^3
[28]
  Volume of the nasal cavity, left nostril: 2.0 ± 0.3$ cm^3
  Volume of the nasal cavity, right nostril: 2.1 ± 0.3$ cm^3
[29]
  Volume of the nasal cavity, left nostril: 1.9 ± 0.1$ cm^3
  Volume of the nasal cavity, right nostril: 2.0 ± 0.1$ cm^3
[30]
  Volume of the nasal cavity, left nostril: 2.4 ± 0.24$ cm^3
  Volume of the nasal cavity, right nostril: 2.4 ± 0.14$ cm^3
[31]
  Volume of the nasal cavity, left nostril: 3.2 ± 0.24$ cm^3
  Volume of the nasal cavity, right nostril: 3.2 ± 0.24$ cm^3
[32]
  Volume of the nasal cavity, left nostril: 3.3 ± 0.14$ cm^3
  Volume of the nasal cavity, right nostril: 3.4 ± 0.14$ cm^3
[33]
  Volume of the nasal cavity, left nostril: 3.3 ± 0.2$ cm^3
  Volume of the nasal cavity, right nostril: 3.4 ± 0.1$ cm^3
[34]
  Volume of the nasal cavity, left nostril: 3.4 ± 0.1$ cm^3
  Volume of the nasal cavity, right nostril: 3.5 ± 0.2$ cm^3
[35]
  Volume of the nasal cavity, left nostril: 3.6 ± 0.2$ cm^3
  Volume of the nasal cavity, right nostril: 3.4 ± 0.2$ cm^3
[36]
  Volume of the nasal cavity, left nostril: 4.4 ± 0.1 cm^3
  Volume of the nasal cavity, right nostril: 4.4 ± 0.2 cm^3
[37]
  Volume of the nasal cavity, left nostril: 2.2 ± 0.1$ cm^3
  Volume of the nasal cavity, right nostril: 2.2 ± 0.2$ cm^3
[38]
  Volume of the nasal cavity, left nostril: 2.4 ± 0.2$ cm^3
  Volume of the nasal cavity, right nostril: 2.3 ± 0.2$ cm^3
[39]
  Volume of the nasal cavity, left nostril: 2.0 ± 0.24$ cm^3
  Volume of the nasal cavity, right nostril: 2.0 ± 0.14$ cm^3
[40]
  Volume of the nasal cavity, left nostril: 3.4 ± 0.14$ cm^3
  Volume of the nasal cavity, right nostril: 3.2 ± 0.24$ cm^3
[41]
  Volume of the nasal cavity, left nostril: 3.4 ± 0.24$ cm^3
  Volume of the nasal cavity, right nostril: 3.4 ± 0.14$ cm^3
[42]
  Volume of the nasal cavity, left nostril: 3.1 ± 0.1$ cm^3
  Volume of the nasal cavity, right nostril: 3.1 ± 0.1$ cm^3
[43]
  Volume of the nasal cavity, left nostril: 3.4 ± 0.1$ cm^3
  Volume of the nasal cavity, right nostril: 3.4 ± 0.1$ cm^3
[44]
  Volume of the nasal cavity, left nostril: 3.6 ± 0.1$ cm^3
  Volume of the nasal cavity, right nostril: 3.5 ± 0.1$ cm^3
[45]
  Volume of the nasal cavity, left nostril: 4.2 ± 0.2 cm^3
  Volume of the nasal cavity, right nostril: 4.1 ± 0.1 cm^3
[46]
  Volume of the nasal cavity, left nostril: 2.7 ± 0.2$ cm^3
  Volume of the nasal cavity, right nostril: 2.7 ± 0.3$ cm^3
[47]
  Volume of the nasal cavity, left nostril: 2.8 ± 0.24$ cm^3
  Volume of the nasal cavity, right nostril: 2.8 ± 0.24$ cm^3
[48]
  Volume of the nasal cavity, left nostril: 2.8 ± 0.14$ cm^3
  Volume of the nasal cavity, right nostril: 2.8 ± 0.24$ cm^3
[49]
  Volume of the nasal cavity, left nostril: 3.4 ± 0.14$ cm^3
  Volume of the nasal cavity, right nostril: 3.5 ± 0.14$ cm^3
[50]
  Volume of the nasal cavity, left nostril: 3.5 ± 0.24$ cm^3
  Volume of the nasal cavity, right nostril: 3.4 ± 0.14$ cm^3
